The results in this text go back to patent publication US20230348369A1 (Cytokinetics, Inc., priority 2020, published 2023).

Read-outs that look alike come from different tables or passages of the source.

For this assay, the target named is human NAMPT (Homo sapiens, UniProt P43490). Kind of assay: Human recombinant enzyme assay (NMN fluorescence biochemical assay, activation of NAMPT). The gist of the method:
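NMN production is detected fluorometrically (Ex 355/Em 460 nm) 40 min after acetophenone, KOH and formic acid derivatization. Reactions ran 60 min at ambient temperature: 6 nM human NAMPT, nicotinamide 150 μM, PRPP 20 μM, ATP 2.5 mM, buffered at pH 7.2 with 50 mM HEPES plus DTT, CHAPS, NaCl and 100 mM MgCl2.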

Setting [1] is: Table A, human recombinant NAMPT, NMN formation, 60 min.
The mark [2] stands for this setting: Table A, human recombinant NAMPT, NMN formation, 60 min, read-out: EC50 Human.

Sequence of human NAMPT (P43490 whole entry): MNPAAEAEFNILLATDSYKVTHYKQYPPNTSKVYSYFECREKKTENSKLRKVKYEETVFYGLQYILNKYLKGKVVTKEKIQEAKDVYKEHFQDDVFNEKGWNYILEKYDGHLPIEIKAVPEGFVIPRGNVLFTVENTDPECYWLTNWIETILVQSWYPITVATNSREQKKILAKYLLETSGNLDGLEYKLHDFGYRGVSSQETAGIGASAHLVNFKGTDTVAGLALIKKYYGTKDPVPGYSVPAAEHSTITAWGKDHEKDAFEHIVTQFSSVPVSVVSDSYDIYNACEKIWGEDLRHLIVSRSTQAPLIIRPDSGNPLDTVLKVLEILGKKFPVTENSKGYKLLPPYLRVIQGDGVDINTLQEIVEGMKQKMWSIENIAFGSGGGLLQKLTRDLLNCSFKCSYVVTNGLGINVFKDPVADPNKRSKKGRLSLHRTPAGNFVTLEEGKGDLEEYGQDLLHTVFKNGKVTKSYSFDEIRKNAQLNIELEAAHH

A word on the EC50: it is the concentration at which the effect is half-maximal. In the case of `Cc1cc(C(=O)N2CC[C@]3(C2)C[C@@H](NC(=O)NCc2ccc(Cl)cc2)C3)ccn1` [Compound 160, 1-(4-chlorobenzyl)-3-((2r,4s)-6-(2-methylisonicotinoyl)-6-azaspiro[3.4]octan-2-yl)urea], under setting [1], the “AC1.4 Human” value came to 13.6 µM. For the same molecule, the EC50 under setting [2] was determined as 42.6 µM.

For the molecule `Cc1ccc(C(=O)NCC2CC3(C2)CC(NC(=O)NCc2ccc(Cl)cc2)C3)cn1` (centres unmarked) [Compound 240, N-((6-(3-(4-chlorobenzyl)ureido)spiro[3.3]heptan-2-yl)methyl)-6-methylnicotinamide], the “AC1.4 Human” value under setting [1] turned out to be 0.9 µM. Also, under setting [2], the EC50 is 3 µM.

`Cc1cc(C(=O)NCC2CC3(C2)CC(NC(=O)NCc2ccc(Cl)cc2)C3)ccn1` (centres unmarked) [Compound 246, N-((6-(3-(4-chlorobenzyl)ureido)spiro[3.3]heptan-2-yl)methyl)-2-methylisonicotinamide]: the “AC1.4 Human” value under setting [1] worked out at 2.1 µM. Further, the EC50 under setting [2] was 4.2 µM.

Consider `COc1ccc(CNC(=O)NC2CC3(C2)CN(C(=O)Cc2ccccc2C)C3)cc1` [Compound 42, 1-(4-methoxybenzyl)-3-(2-(2-(o-tolyl)acetyl)-2-azaspiro[3.3]heptan-6-yl)urea], for which, under setting [1], the “AC1.4 Human” value was determined as 10.7 µM. For the same molecule, under setting [2], the EC50 was determined as 42.2 µM.

Take `COc1ccc(CNC(=O)NC2CC3(C2)CC(C(=O)NCCc2cn[nH]c2)C3)cc1` (centres unmarked) [Compound 75, N-(2-(1H-pyrazol-4-yl)ethyl)-6-(3-(4-methoxybenzyl)ureido)spiro[3.3]heptane-2-carboxamide]: the “AC1.4 Human” value under setting [1] turned out to be 11.5 µM. In addition, the EC50 under setting [2] is 42 µM.

For `COc1ccc(CNC(=O)NC2CC3(C2)CC(C(=O)NC2CCCc4ccc(F)cc42)C3)cc1` (stereo in doubt) [Compound 97, (S)-N-(7-fluoro-1,2,3,4-tetrahydronaphthalen-1-yl)-6-(3-(4-methoxybenzyl)ureido)spiro[3.3]heptane-2-carboxamide], under setting [1], the “AC1.4 Human” value was found to be 1.3 µM. For the same molecule, under setting [2], the EC50 turned out to be 2.7 µM.

As for `O=C(NCCCCC1CCN(C(=O)c2ncco2)CC1)NCc1ccc(Cl)cc1` [Compound 305, 1-(4-chlorobenzyl)-3-(4-(1-(oxazole-2-carbonyl)piperidin-4-yl)butyl)urea], the “AC1.4 Human” value under setting [1] came out at 0.2 µM. Besides, the EC50 under setting [2] was 0.4 µM.

Take `O=C(NCc1ccc(Cl)cc1)NC1CC2(CC(CC(=O)N3CCC[C@H]3CO)C2)C1` (stereo partly drawn) [Compound 235, (S)-1-(4-chlorobenzyl)-3-(6-(2-(2-(hydroxymethyl)pyrrolidin-1-yl)-2-oxoethyl)spiro[3.3]heptan-2-yl)urea]: under setting [1], the “AC1.4 Human” value was determined as 4.1 µM. Besides, under setting [2], the EC50 came to 7.5 µM.

For `Cc1ccc(C(=O)NCCCCCNC(=O)NCc2ccc(Cl)cc2)cn1` [Compound 281, N-(5-(3-(4-chlorobenzyl)ureido)pentyl)-6-methylnicotinamide], the “AC1.4 Human” value under setting [1] amounted to 1.3 µM. Moreover, the EC50 under setting [2] was 3.9 µM.

In the case of `COc1ccc(CNC(=O)NC2CC3(C2)CN(C(=O)c2cccc(C(C)C)c2)C3)cc1` [Compound 173, 1-(2-(3-isopropylbenzoyl)-2-azaspiro[3.3]heptan-6-yl)-3-(4-methoxybenzyl)urea], the “AC1.4 Human” value under setting [1] amounted to 1.7 µM. The EC50 under setting [2] stood at 20.2 µM.

For the molecule `Cc1cccc(CC(=O)N2CCC(CCCCNC(=O)NCc3ccc(Cl)cc3)CC2)n1` [Compound 299, 1-(4-chlorobenzyl)-3-(4-(1-(2-(6-methylpyridin-2-yl)acetyl)piperidin-4-yl)butyl)urea], the “AC1.4 Human” value under setting [1] is 1.0 µM. For the same molecule, the EC50 under setting [2] was found to be 3.8 µM.

As for `COc1ccc(CNC(=O)NC2CC3(C2)CC(C(=O)N2CCC2c2ccccc2)C3)cc1` (centres unmarked) [Compound 48, 1-(4-methoxybenzyl)-3-(6-(2-phenylazetidine-1-carbonyl)spiro[3.3]heptan-2-yl)urea], the “AC1.4 Human” value under setting [1] amounted to 4.7 µM. The EC50 under setting [2] is 52.1 µM.

On to `O=C(NCCCCC1CCN(C(=O)Cc2ccncc2)CC1)NCc1ccc(Cl)cc1` [Compound 295, 1-(4-chlorobenzyl)-3-(4-(1-(2-(pyridin-4-yl)acetyl)piperidin-4-yl)butyl)urea], for which the “AC1.4 Human” value under setting [1] worked out at 1.2 µM. Moreover, the EC50 under setting [2] amounted to 8.4 µM.

Turning to `COc1ccc(CNC(=O)NC2CC3(C2)CN(C(=O)Nc2cccc(C#N)n2)C3)cc1` [Compound 132, N-(6-cyanopyridin-2-yl)-6-(3-(4-methoxybenzyl)ureido)-2-azaspiro[3.3]heptane-2-carboxamide], the EC50 worked out at 42.8 µM. For the same molecule, the “AC1.4 Human” value under setting [1] was found to be 15.0 µM.

On to `Cc1cc(C(=O)N2CC3(CC(NC(=O)NCc4ccc(C(N)=O)cc4)C3)C2)ccn1` [Compound 226, 4-((3-(2-(2-methylisonicotinoyl)-2-azaspiro[3.3]heptan-6-yl)ureido)methyl)benzamide], for which the “AC1.4 Human” value under setting [1] was 2.9 µM. Under setting [2], the EC50 is 31.4 µM.

Take `COc1ccc(CNC(=O)NC2CC3(C2)CC(C(=O)N2CCN(C)CC2CO)C3)cc1` (centres unmarked) [Compound 113, 1-(6-(2-(hydroxymethyl)-4-methylpiperazine-1-carbonyl)spiro[3.3]heptan-2-yl)-3-(4-methoxybenzyl)urea]: under setting [1], the “AC1.4 Human” value was determined as 3.8 µM. For the same molecule, the EC50 under setting [2] was 51.6 µM.

For the molecule `Cc1cccc(C(=O)NCC2CC3(C2)CC(NC(=O)NCc2ccc(Cl)cc2)C3)n1` (centres unmarked) [Compound 245, N-((6-(3-(4-chlorobenzyl)ureido)spiro[3.3]heptan-2-yl)methyl)-6-methylpicolinamide], the EC50 came out at 4.9 µM. Under setting [1], the “AC1.4 Human” value was 3.1 µM.

For `COc1ccc(CNC(=O)NC2CC3(C2)CN(C(=O)c2ccccc2)C3)cc1` [Compound 141, 1-(2-benzoyl-2-azaspiro[3.3]heptan-6-yl)-3-(4-methoxybenzyl)urea], the “AC1.4 Human” value under setting [1] came out at 4.7 µM. Under setting [2], the concentration for a half-maximal effect (EC50) worked out at 49.4 µM.

With `COc1ccc(CNC(=O)NC2CC3(C2)CC(C(=O)NCC(C)(C)c2ccccc2C)C3)cc1` (centres unmarked) [Compound 54, 6-(3-(4-methoxybenzyl)ureido)-N-(2-methyl-2-(o-tolyl)propyl)spiro[3.3]heptane-2-carboxamide], under setting [1], the “AC1.4 Human” value came to 1.4 µM. For the same molecule, under setting [2], the EC50 came out at 29.4 µM.

Take `Cc1ncccc1CC(=O)N1CCC(CCCCNC(=O)NCc2ccc(Cl)cc2)CC1` [Compound 310, 1-(4-chlorobenzyl)-3-(4-(1-(2-(2-methylpyridin-3-yl)acetyl)piperidin-4-yl)butyl)urea]: the “AC1.4 Human” value under setting [1] was determined as 0.8 µM. Moreover, the EC50 under setting [2] came to 4.1 µM.

`COc1ccc(CNC(=O)NC2CC3(C2)CN(C(=O)c2cccc(C(C)(C)O)c2)C3)cc1` [Compound 175, 1-(2-(3-(2-hydroxypropan-2-yl)benzoyl)-2-azaspiro[3.3]heptan-6-yl)-3-(4-methoxybenzyl)urea]: the “AC1.4 Human” value under setting [1] came to 5.5 µM. For the same molecule, the EC50 under setting [2] stood at 55.1 µM.

On to `O=C(NCc1ccc(Cl)cc1)NC1CC2(C1)CC(NC(=O)c1ccccc1O)C2` (centres unmarked) [Compound 208, N-(6-(3-(4-chlorobenzyl)ureido)spiro[3.3]heptan-2-yl)-2-hydroxybenzamide], for which the “AC1.4 Human” value under setting [1] worked out at 9.6 µM. For the same molecule, under setting [2], the EC50 was 11.8 µM.

On to `COc1ccc(CNC(=O)NC2CC3(C2)CN(C(=O)c2cccc(C)c2)C3)cc1` [Compound 146, 1-(4-methoxybenzyl)-3-(2-(3-methylbenzoyl)-2-azaspiro[3.3]heptan-6-yl)urea], for which the “AC1.4 Human” value under setting [1] amounted to 4.1 µM. Besides, the EC50 under setting [2] is 38.7 µM.

For `COc1cccc(C(=O)NC2CC3(CC(NC(=O)NCc4ccc(Cl)cc4)C3)C2)c1` (centres unmarked) [Compound 194, N-(6-(3-(4-chlorobenzyl)ureido)spiro[3.3]heptan-2-yl)-3-methoxybenzamide], the “AC1.4 Human” value under setting [1] came out at 8.8 µM. Besides, the EC50 under setting [2] is 5.9 µM.

`COc1ccc(CNC(=O)NC2CC3(C2)CN(C(=O)c2ccc(C(F)(F)F)cc2)C3)cc1` [Compound 147, 1-(4-methoxybenzyl)-3-(2-(4-(trifluoromethyl)benzoyl)-2-azaspiro[3.3]heptan-6-yl)urea]: under setting [1], the “AC1.4 Human” value was 5.8 µM. The half-maximal effective concentration (EC50) under setting [2] came out at 58.2 µM.

As for `COc1ccc(CNC(=O)NC2CC3(C2)CC(C(=O)NCC(C)(C)c2cccnc2)C3)cc1` (centres unmarked) [Compound 66, 6-(3-(4-methoxybenzyl)ureido)-N-(2-methyl-2-(pyridin-3-yl)propyl)spiro[3.3]heptane-2-carboxamide], under setting [1], the “AC1.4 Human” value is 3.3 µM. Further, the EC50 under setting [2] was found to be 37.8 µM.

As for `COc1ccc(CNC(=O)NC2CC3(C2)CN(C(=O)c2ccc(Cl)cc2)C3)cc1` [Compound 158, 1-(2-(4-chlorobenzoyl)-2-azaspiro[3.3]heptan-6-yl)-3-(4-methoxybenzyl)urea], the “AC1.4 Human” value under setting [1] was found to be 2.7 µM. Further, under setting [2], the EC50 turned out to be 39.1 µM.

Turning to `COc1ccc(CNC(=O)NC2CC3(C2)CN(S(=O)(=O)C2CC4CCC2C4)C3)cc1` (centres unmarked) [Compound 130, 1-(2-(bicyclo[2.2.1]heptan-2-ylsulfonyl)-2-azaspiro[3.3]heptan-6-yl)-3-(4-methoxybenzyl)urea], the “AC1.4 Human” value under setting [1] turned out to be 18.1 µM. Also, the EC50 under setting [2] turned out to be 48 µM.

`Cc1ccccc1C(=O)NCCCCCNC(=O)NCc1ccc(Cl)cc1` [Compound 275, N-(5-(3-(4-chlorobenzyl)ureido)pentyl)-2-methylbenzamide]: the “AC1.4 Human” value under setting [1] turned out to be 1.9 µM. Also, under setting [2], the EC50 came out at 11.4 µM.

Turning to `COC(=O)N1CCN(C(=O)C2CC3(CC(NC(=O)NCc4ccc(OC)cc4)C3)C2)CC1` (centres unmarked) [Compound 231, methyl 4-(6-(3-(4-methoxybenzyl)ureido)spiro[3.3]heptane-2-carbonyl)piperazine-1-carboxylate], the EC50 stood at 7.8 µM. In addition, the “AC1.4 Human” value under setting [1] worked out at 0.5 µM.

Consider `COc1ccc(CNC(=O)NC2CC3(CC(CN4Cc5ccccc5C4)C3)C2)cc1` (centres unmarked) [Compound 129, 1-(6-(isoindolin-2-ylmethyl)spiro[3.3]heptan-2-yl)-3-(4-methoxybenzyl)urea], for which the “AC1.4 Human” value under setting [1] came to 7.3 µM. Under setting [2], the EC50 was found to be 30.2 µM.
